Read-outs that look alike come from different tables or passages of the source.
Tests used:
Assay type in all cases: cell-based
[1] = test system: cynomolgus monkey ES cells; settings: for concentration considered the best in step 2: conclusion at the time of experiment 21; for induction of NR5A1-positive cells: addition in step 1 (BMS493 1 μM), FACS day 14
human iPS cells [2] = assay: Induction of differentiation from human iPS cells into ovarian somatic cell-like cells (FACS of OSR1-tdTomato/NR5A1-EGFP reporters, observation of embryoid bodies)
Text: In order to conveniently observe the expression of genes typical at each developmental stage, a human iPS cell line 1390G3 was genetically modified, and a DNA sequence that emits red fluorescence (tdTomato) with the expression of the OSR1 gene, green fluorescence (EGFP) with the expression of the NR5A1 gene, and red fluorescence (tdTomato) with the expression of the FOXL2 gene was manufactured (see FIG. 1, and after introduction into the chromosome, a portion of “PGKp-Neo (or Puro)-pA” portion was deleted with Cre). An iPS cell line into which two DNA sequences of OSR1 and NR5A1 had been introduced (which may be hereinafter abbreviated as “OTNG”), and an iPS cell line into which two DNA sequences of NR5A1 and FOXL2 had been introduced (which may be hereinafter abbreviated as “NGFT”) were manufactured. In the present test, the OTNG strain was used in most of the experiments. Furthermore, NR5A1 and SF1 are the same gene.
(§1) The cells at each stage were analyzed using a flow cytometer (BD FACSAria III).
The ES cells of monkeys and human iPS cells are considered to be similar to EpiLC in a slightly advanced state in terms of differentiation, as compared with mouse ES cells. Therefore, in the examination using monkey or human pluripotent stem cells in the present test, step 0 was omitted and the process was started from step 1. […] For this reason, Y27632 was added to step 1 to perform examination. In addition, a 96-well V-bottom plate was used as a culture plate and the cells were seeded so as to have 10,000 cells per well.
In a test using human cells, the base medium was changed from GMEM (used in mice) to DMEM including 7.5 v/v % KnockOut (registered trademark) Serum Replacement (KSR). In addition, the base medium includes 0.1 mM 2-mercaptoethanol, 100 U/mL penicillin/streptomycin, and 2 mM GlutaMax (registered trademark), but the additives and concentrations thereof are fixed, and the description following “2.” is omitted. The periods of step 1 and step 2 were set to be the same as those in the mouse protocol, and culture was continued under the condition of step 3. The entire medium was basically changed every two or three days. At the time of subculturing iPS cells, 30,000 cells were seeded on a low-adhesive plate to start the culture as aggregates.

[3] = test system: cynomolgus monkey ES cells; assay: Quantitative PCR of marker genes in cells induced from cynomolgus monkey ES cells; settings: without BMP4 and with the addition of LDN in step 1
Description: The relative expression level of each marker gene was confirmed using a PCR apparatus (BIO-RAD CFX384 Real-Time System) with the following primers and conditions. In the table, the primers of PAX3, OSR1, PAX2 #3, EMX2 #1, WT1 #2, and LHX9 #2 were used only in the experiment of FIG. 31C, and the primers of OSR1 #10, CXCL12×4, BMP2, and BMP4 were used only for the experiment in FIG. 57C. The GAPDH gene and the PPIA gene were measured as housekeeping genes, and relative values with the average of Ct values of the two genes as a control value are shown in the graph. Although not shown in the graph, ERCC-00096, ERCC-00009, ERCC-00022, and ERCC-00025 were used in combination as a control, except for the experiment of FIG. 31C.

[4] = test system: cynomolgus monkey ES cells
Text: In order to conveniently observe the expression of genes represented by each developmental stage, the stop codons of TBXT, OSR1, NR5A1, FOXL2, WT1, and GATA4 were deleted from the cynomolgus monkey female ES15XRi cell strain using a Cas9 nickase and gene targeting, 2A and EGFP (TBXT, NR5A1), tdTomato (OSR1, FOXL2, and WT1), and 2A and mTagBFP2 (GATA4) were inserted, and then a drug-resistant cassette sandwiched between loxP's was knocked in (FIGS. 24A to 24F; and in FIG. 24A to FIG. 24F, “PGK” represents a PGK promoter). Thereafter, the drug-resistant cassette was removed using Cre to manufacture the following five double reporter cell strains. • (1) TBXT-EGFP/OSR1-tdTomato (which may be hereinafter abbreviated as a “TGOT strain”); • (2) NR5A1-EGFP/FOXL2-tdTomato (which may be hereinafter abbreviated as a “NGFT strain”); • (3) a single reporter strain of NR5A1-EGFP (which may be hereinafter abbreviated as an “NG-Puro strain”. This strain has not been subjected to the removal of the drug-resistant cassette by Cre); • (4) a triple reporter strain of WT1-tdTomato/GATA4-mTagBFP2/NR5A1-EGFP (which may be hereinafter abbreviated to as a “WTGBNG strain”); and • (5) WT1-tdTomato/NR5A1-EGFP (which may be hereinafter abbreviated as a “WTNG strain”).
as §1
At the time of induction, the ES cells were cultured on mouse embryonic fibroblasts (MEF), which are feeder cells, treated with a proteolytic enzyme solution (CTK: collagenase, trypsin, and KSR), and then dissociated up to a single-cell level using TrypLEselect. Next, each of 30,000 cells was seeded in a low-adhesive 96-well U-bottom culture plate (hereinafter, step 1 was started by the same method unless otherwise specified). A TGOT No. 25 strain was used as a cell strain. The presence or absence of the ROCK inhibitor (Y-27632) in step 1 was examined. In FIG. 25A, the base medium GK7.5 has a composition of GMEM, 7.5 v/v % KSR, 0.1 mM 2-ME, 0.1 mM non-essential amino acid (NEAA), 1 mM sodium pyruvate, 100 U/mL penicillin/streptomycin, and 2 mM L-glutamine. The induction was performed for a period in step 1 of 2 days and in step 2 of 2 days. In step 2, PD173074 was used instead of PD0325901 used in mice. PD173074 is an inhibitor of FGF, whereas PD0325901 is an MEK inhibitor downstream of the FGF signaling pathway.

human iPS cells [5] = assay: Quantitative PCR of marker genes in cells induced from human iPS cells; settings: bFGF 5 ng/ml added in step 1; day 15 of induction
Text: The relative expression level of each marker gene was confirmed using a PCR apparatus (BIO-RAD CFX384 Real-Time System) with the following primers and conditions. In the tables, the PPIA gene and the RPLP0 gene were used as housekeeping genes. The difference in qPCR is a difference from the average value taken as “(PPIA+RPLP0)/2”. In addition, the ERCC gene was used as an absolute control between samples.

[6] = added to each condition in step 3 (16 patterns), day 16
[7] = one cytokine added with EGF in step 3, compared with no cytokine control (CK−), BMP4 1 ng/ml, SHH 30 ng/mL, PD0325901 1 μM, RA 3 μM, day 16
[8] = one cytokine added with EGF in step 3, compared with no cytokine control (CK−), day 16
[9] = concentration of LDN increased in step 1 (30, 100, 1,000 nM)

O=C(NOC[C@H](O)CO)c1ccc(F)c(F)c1Nc1ccc(I)cc1F [PD0325901]
optimum concentration of PD0325901 in step 2 ([1]; FACS day 16, NGFT No. 69 strain): 1 µM | induction efficiency ([1]; MEK downstream of FGF inhibited with PD0325901 1 μM in step 3, FACS day 16): higher | number of the induced cells ([1]; PD03 added in step 3, WTGBNG No. 1): reduced | induction efficiency [1, 6]: improved | number of induced cells [1, 6]: decreased | induction efficiency ([1]; addition of PD0325901 in step 3, without addition of SHH, WTGBNG No. 1): the highest | concentration considered the best in step 2 [1]: 1 µM | optimum addition period of PD03 in step 3 ([1]; none, 48 hours, 96 hours tested, NG-Puro strain): 48 h | induction efficiency [1, 7]: further increased | number of induced cells [1, 8]: decreased | size (embryoid bodies) at the end of step 2 ([1]; step 2: PD0325901 3, 1, 0.3, 0 μM or FGF9 20 ng/ml, day 6): improved as the amount of PD0325901 was reduced | NR5A1-positive cells (human iPS cells [2]; PD0325901 not added in step 2, day 15 of induction): not observed at all | NR5A1-positive cells (human iPS cells [2]; PD0325901 weak in step 2 (0.4-1.0 μM tested), day 15): did not appear | PD0325901 concentration with the highest differentiation induction efficiency (human iPS cells [2]; step 2, KSR 7 v/v %, day 15): 1.0 µM

c1ccc2c(-c3cnn4cc(-c5ccc(N6CCNCC6)cc5)cnc34)ccnc2c1 [LDN193189]
induction of NR5A1-positive cells [1]: no particular advantage | improvement in the proportion of NR5A1-positive cells ([1]; addition of LDN in step 1 (30, 100, 1,000 nM), days 14, 17, 21): almost no improvement | OSR1 expression at the end point of step 1 (day 2.2) [1, 9]: decreased | increase in OSR1 expression in step 2 (days 4 and 6) [1, 9]: became weaker | expression of FOXF1 [3]: almost disappeared

CC1=C(/C=C/C(C)=C/C=C/C(C)=C/C(=O)O)C(C)(C)CCC1 [RA, retinoic acid]
concentration of RA in step 2 at which induction efficiency for NR5A1-positive cells was particularly excellent ([1]; 0, 0.3, 1, 3, 10 μM tested, FACS day 16): ≥ 3 µM | concentration considered the best in step 2 [1]: 3 µM

Cc1c[nH]c(-c2cnc(NCCNc3ccc(C#N)cn3)nc2-c2ccc(Cl)cc2Cl)n1 [CHIR99021]
expression of OSR1 ([4]; CHIR 10 μM in step 1, regardless of the concentration of BMP4): confirmed | optimum concentration of CHIR for induction of the intermediate mesoderm ([4]; step 1): ≥ 10 µM | concentration of CHIR99021 at which TBXT can be expressed with high efficiency ([4]; step 1 of 2 days, FACS day 2, TGOT No. 25 strain): ≥ 8 µM | NR5A1-positive cells ([1]; CHIR 20 μM in step 1, culture until day 17, NGFT No. 69 strain): a number of NR5A1-positive cells were observed | concentration of CHIR99021 at which OSR1 can be expressed with high efficiency ([1]; step 1, at a transition to step 2, FACS days 4 and 6): ≥ 14 µM | proportion of NR5A1-positive cells (human iPS cells [2]; CHIR99021 15 μM as compared to 10 μM in step 1): excellent

C[C@@H](N)[C@H]1CC[C@H](C(=O)Nc2ccncc2)CC1 [Y-27632]
efficiency of forming cell aggregates (embryoid bodies) ([4]; without Y-27632 in step 1, day 2 of induction, TGOT No. 25 strain): significantly low

CNC1CCC(N(Cc2cccc(-c3ccncc3)c2)C(=O)c2sc3ccccc3c2Cl)CC1 (stereo not shown) [SAG]
replacement of SHH in step 2 ([1]; SAG 100 nM, FACS day 16): SHH can be replaced with SAG

CC1(C)CC=C(C#Cc2ccccc2)c2cc(/C=C/c3ccc(C(=O)O)cc3)ccc21 [BMS493]
OSR1 expression in step 2 ([1]; 1 μM in step 1, FACS days 2, 4, 6): enhancement | expression level of SF1-EGFP ([1]; BMS493 1 μM added in step 3): slightly increased | induction efficiency of SF1-positive cells ([1]; BMS493 1 μM added in step 3): poor | expression level of WT1 ([1]; BMS493 1 μM for 48 hours in step 3, WTGBNG No. 1 strain): slightly decreased | induction of NR5A1-positive cells [1]: no particular advantage

BMP4: bone morphogenetic protein 4
expression of OSR1 ([4]; increasing the amount of BMP in step 1, CHIR99021 14 μM or more): enhanced | embryoid bodies (size; concern about cytotoxicity) [1]: the same tendency was recognized | best concentration in step 2 (induction efficiency) ([1]; BMP4 0, 1, 5, 10 and SHH 0, 30, 60, 100 ng/ml tested, FACS day 16): 1 ng/mL | concentration in step 3 that most induced NR5A1-positive cells ([1]; BMP4 0, 1, 20, 50 and FGF9 0, 2, 10, 20 ng/ml tested, FACS day 16): 1 ng/mL | induction efficiency ([1]; BMP4 not added after step 2 (four-step method), FACS day 16): higher | number of induced cells [1, 6]: decreased only in a case where BMP4 was added to EGF+RA (ER+B) | expression of OSR1 ([1]; by the amount of BMP4 added in step 1 (1, 3, 10 ng/ml), CHIR 10 μM): increase | concentration considered the best in step 2 [1]: 1 ng/mL | induction efficiency [1, 7]: reduced | number of induced cells [1, 8]: large | concentration in step 1 at which number and proportion of the positive cells were maximal ([1]; periods 3-3-10 (days), day 16): 0 ng/mL

EGF: epidermal growth factor
concentration considered the best in step 2 [1]: 50 ng/mL | necessity for induction ([1]; no addition of EGF in step 1 and step 2, FACS day 16, NGFT No. 69): not essential

bFGF: basic fibroblast growth factor (FGF2)
expression of OSR1 ([1]; added in step 1: bFGF 50 ng/mL entire period, Activin A 10 ng/ml one day from day 1, FACS days 2, 4, 6): acted toward enhancing the expression of OSR1 | NR5A1-positive cells ([1]; addition of bFGF in step 1, periods 2-2-12 (days), day 16): no significant change | NR5A1-positive cell induction efficiency ([1]; addition of bFGF in step 1, periods 3-3-10 (days), day 16): remarkable improvement | improvement of the induction of NR5A1-positive cells ([1]; bFGF 50 ng/ml and Activin A 10 ng/ml (only from day 1) in step 1, days 14 and 21): not recognized | concentration in step 1 at which number and proportion of the positive cells were maximal ([1]; periods 3-3-10 (days), day 16): 5 ng/mL | expression of the marker gene of posteriorization (human iPS cells [5]): not recognized | states of the embryoid bodies (human iPS cells [2]; added between day 2 and day 4 of induction, step 1 plane culture): poor (dead) | differentiation induction efficiency (human iPS cells [2]; bFGF not present in step 1 (versus added)): higher

— US20240174985A1, “METHOD FOR PRODUCING OVARIAN SOMATIC CELL-LIKE CELLS, AND METHOD FOR INDUCING DIFFERENTIATION OF PRIMATE PLURIPOTENT STEM CELLS INTO OVARIAN SOMATIC CELL-LIKE CELLS” (Kyoto University, priority 2021, published 2024)
